This is an account of results in patent publication US8529927B2, “Alpha-2 agonist polymeric drug delivery systems” (Allergan, Inc., priority 2004, dated 2013).

Where two headings read alike, the source gives them in different places.

Data set [1] concerns Branch retinal vein occlusion (BRVO). Nature of the data set: intravitreal implants in monkeys with laser-induced branch retinal vein occlusion (BRVO). Format: in vivo, Cynomolgus monkeys.
Protocol: Baseline measures were performed 3 days prior to implantation and 10 days following implantation with intraocular pressure (IOP), mfERG, laser Doppler scanning topography/flowmetry (HRT/HRF), optical coherence tomography (OCT), indocyanine green angiography (ICG) and fluorescein angiography (FA).
Wide angle contact lens fundus photography verified implant count and localization.
Branch retinal vein occlusion (BRVO) was achieved by injecting 1 ml of 20 mg/kg Rose Bengal intravenously followed by thermal irradiation using Omni Coherent Diode laser at 532 nm, 600 mW, 50 um spot size, 0.01 sec pulse mode with a 1.6× inversion contact lens. Laser pulses were delivered until the vein segment was closed. […] Occlusion was verified post-laser by fundus photography.
Delay in fluorescein filling of the occluded vein was quantified using Metamorph 6.0 software. Intensity measurements were made with pre-defined regions of interest for early and late phases of fluorescein angiography to quantify delay in filling and the observed delay in fluorescein clearance.
Intraocular pressure (IOP) was recorded (OD and OS) in each group in triplicate post implantation and prior to all follow-up electrophysiology and retinal imaging procedures.
Multi-focal ERG was performed using a VERIS 5.0 system.
Data set [2] is described as follows: in vivo. Here is the method:
A separate group of rabbits were studied to obtain pharmacokinetic data. In these rabbits the implants were inserted using a surgical intravitreal implantation procedure performed as follows: a conjunctival incision was made, and a sclerotomy was performed with a 20-gauge MVR blade. The sclerotomy was 3 mm from the limbus and lateral to the dorsal rectus muscle between the 10 and 12 o'clock positions on the right eye, and between the 12 and 2 o'clock positions on the left eye. Using a sterile forceps, the test article was inserted through the sclerotomy. The sclerotomy was closed with 9-0 Prolene suture material. A sterile ocular lubricant was applied to the eye following the implantation procedure. Blood was collected from rabbits prior to euthanasia/necropsy on Days 8, 31, 58, 91, 136, or 184. The aqueous humor, vitreous humor, lens, retina and plasma samples from the rabbits were analyzed by using liquid chromatography-mass spectrometry/mass spectrometry (LC-MS/MS) methods.

The conditions of data set [3]: cited from earlier work.
Where [4] appears, read: albino, rabbit, lens, other: intravitreal implantation, 200 μg.
[5] abbreviates: albino, rabbit, plasma, other: intravitreal implantation, 200 μg.
[6] abbreviates: albino, rabbit, retina, other: intravitreal implantation, 200 μg.
Where [7] appears, read: albino, rabbit, vitreous humor, other: intravitreal implantation, 200 μg.

For `Brc1c(NC2=NCCN2)ccc2nccnc12` [brimonidine, 5-bromo-6-(2-imidazolidinylideneamino) quinoxaline], the “blood flow in the fovea (Laser Doppler Flowmetry)” value in data set [1] (following BRVO, FIG. 14) was “unchanged”. The “amount of laser burns needed to close the veins” value in data set [1] (n=2) turned out to be 157±79. Also, the “Iris-ciliary body brimonidine concentration, estimated mean value in parentheses” value in data set [2] (Day 8, Formulation #17 implant, estimate including ALQ samples) is on record as 3010 ng/g. Besides, the “Iris-ciliary body brimonidine concentration” value in data set [2] (Day 8 after intravitreal 200 μg brimonidine implant (Formulation #17), N = 2, two samples ALQ) came to 942 ng/g. Besides, in data set [2] (Formulation #17 implant), the “period of detectable release from the implant into the vitreous” value was “at least a ninety day period”, the “route of clearance after release from the intravitreal implant” value is “posterior clearance as opposed to an anterior clearance” and the “time brimonidine was present in the retina” value is given as “at least 84 days”. The concentration at 91 day in data set [2] (albino, rabbit, iris-ciliary body, other: intravitreal implantation, 200 μg) is 42.9 ± 18.7 ng/g. In data set [2] (setting [4]), this compound yielded a concentration at 58 day of 17.9 ± 12.5 ng/g, a concentration at 136 day of 16.2 ± 12.3 ng/g and a concentration at 184 day of 1.18 ± 0.71 ng/g. In data set [2] (setting [5]), the concentration at 8 day turned out to be 0.092 ng/mL, the concentration at 31 day was found to be 0.0575 ng/mL and the concentration at 58 day stood at 0.255 ng/mL. Moreover, in data set [2] (setting [6]), the concentration at 58 day turned out to be 122 ± 57.3 ng/g, the concentration at 91 day came to 488 ± 471 ng/g and the concentration at 184 day is 59.8 ± 35 ng/g. In data set [2] (setting [7]), this compound returned a concentration at 31 day of 9.35 ± 6.25 ng/mL and a concentration at 58 day of 5.6 ± 3.24 ng/mL. Further, the “detectability in the aqueous humor” value in data set [2] (any time point (Days 8-184), Formulation #17 implant) is given as “not detectable at any time point”. Also, in data set [3] (listed as brimonidine free base), the “solubility in water” value is on record as “not water soluble”. Moreover, the “solubility in water” value in data set [3] (listed as brimonidine freebase) is on record as “negligible”.
